The values that follow are results of earlier work, collected in patent publication US20260272868A1 (priority 2022, published 2026).

T1 sequence (P28223 whole entry): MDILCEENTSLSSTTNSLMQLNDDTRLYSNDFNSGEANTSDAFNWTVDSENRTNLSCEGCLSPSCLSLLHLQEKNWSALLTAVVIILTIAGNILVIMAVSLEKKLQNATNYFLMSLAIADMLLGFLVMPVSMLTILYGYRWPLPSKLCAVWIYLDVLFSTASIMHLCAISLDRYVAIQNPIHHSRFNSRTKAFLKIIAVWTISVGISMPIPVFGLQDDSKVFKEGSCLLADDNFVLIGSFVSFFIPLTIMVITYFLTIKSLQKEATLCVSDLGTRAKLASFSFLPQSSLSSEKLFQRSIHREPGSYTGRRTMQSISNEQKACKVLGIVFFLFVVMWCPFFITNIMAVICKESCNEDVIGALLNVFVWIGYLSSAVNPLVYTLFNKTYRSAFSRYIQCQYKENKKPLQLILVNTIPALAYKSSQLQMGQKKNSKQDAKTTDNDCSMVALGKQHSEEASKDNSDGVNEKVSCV

One data set concerns the target T1, 5-HT2A receptor (Homo sapiens, UniProt P28223).
T1 construct: (~mg per ~70 kg human, route); host or cells: human subjects (in vivo doses)
Particulars: oral; cited from earlier work.
With `COc1cc(CCN)c(OC)cc1Br` [2C-B], the “Typical Fully Psychedelic Dose Range” value was 15-25, oral ~mg per ~70 kg human.
As to `CCc1cc(OC)c(CCN)cc1OC` [2C-E, 2-(4-Ethyl-2,5-dimethoxyphenyl)ethanamine], the “Typical Fully Psychedelic Dose Range” value is reported as 10-20, oral ~mg per ~70 kg human.
As to `COc1cc(CC(C)N)c(OC)cc1C` (centres unmarked) [DOM, 2,5-dimethoxy-4-methylamphetamine], the “Typical Fully Psychedelic Dose Range” value was 3-5, oral ~mg per ~70 kg human.
Consider `CCN(CC)C(=O)[C@@H]1C=C2c3cccc4[nH]cc(c34)C[C@H]2N(C)C1` [LSD, lysergic acid diethylamide], for which the “Typical Fully Psychedelic Dose Range” value is 0.1-0.2, oral ~mg per ~70 kg human.
With `COc1cc(CCN)cc(OC)c1OC` [mescaline], the “Typical Fully Psychedelic Dose Range” value is 200-400, oral ~mg per ~70 kg human.
As to `CN(C)CCc1c[nH]c2cccc(O)c12` [psilocin], the “Typical Fully Psychedelic Dose Range” value is reported as 15-25, oral ~mg per ~70 kg human.

The data set is the same for the next values; noted with them: smoked; cited from earlier work.
`COc1ccc2[nH]cc(CCN(C)C)c2c1` [5-MeO-DMT, 5-methoxy-N,N-dimethyltryptamine]: the “Typical Fully Psychedelic Dose Range” value was 5-10, smoked ~mg per ~70 kg human.
In the case of `CN(C)CCc1c[nH]c2ccccc12` [DMT, N,N-dimethyltryptamine], the “Typical Fully Psychedelic Dose Range” value is on record as 20-40, smoked ~mg per ~70 kg human.
